Assay results: publication PMC9266822, “Thermal Shift Assay for Small GTPase Stability Screening: Evaluation and Suitability” (International Journal of Molecular Sciences, 2022)
Entries after “also recorded” stand apart in the source; their conditions may differ.

How the values were obtained:
[1] = system: T1, KRAS G13D; test: SYPRO Orange thermal ramping assay; type: binding, human; conditions: KRAS G13D 3 µM, 1 mM MgCl2, GDP 1 µM, ATP 1 mM
T1 construct: GG-Hs.KRAS4b (2-188) G13D; His6-MBP (N, cleaved yes); made in house; host or cells: E. coli
Procedure: (§1) SYPRO Orange and ANS assays were performed using a one-step protocol, where the samples (8 µL) and SYPRO Orange/ANS solution (12 µL) were combined prior to the first heating step. The samples were incubated for 3 min at each temperature, followed by fluorescence signal measurement. SYPRO Orange was used at 5× (stock 5000×) and ANS at 10 µM final concentration.
(§2) Thermal stability curves for KRAS WT, G12C, G13D, and Q61R (0–30 µM) were monitored both with SYPRO Orange and ANS in an assay buffer with or without 1 mM MgCl2. In addition, HRAS, NRAS, KRAS V14I, RhoA, and Gαi were studied at 10 µM concentration. KRAS G13D (3 µM) was assayed with SYPRO Orange in thermal ramping in combination with 0–1000 µM GDP, 1000 µM GTP, and 1000 µM ATP in a buffer supplemented with 1 mM MgCl2. Additionally, 10 µM HRAS, NRAS, KRAS V14I, Ac-KRAS iMet-KRAS, RhoA, and Gαi were studied without additional nucleotides or with 10 or 100 µM GDP/GTP in an assay buffer supplemented with 1 mM MgCl2 or 1 mM EDTA.

[2] = system: T2, KRAS V14I; test: SYPRO Orange / ANS thermal ramping assay; type: binding; conditions: KRAS V14I 10 µM, 1 mM MgCl2; 100 µM ATP
T2 construct: KRAS V14I (residues 1-169) lacking the C terminal residues; made in house
Procedure: as §1
as §2, with “Additionally, 10 µM HRAS, NRAS, KRAS V14I, Ac-KRAS iMet-KRAS, RhoA, and Gαi were studied without additional nucleotides or with 10 or 100 µM GDP/GTP in an assay buffer supplemented with 1 mM MgCl2 or 1 mM EDTA.” left out

[3] = system: NRAS, HRAS, RhoA, Gαi; test: Protein-Probe thermal stability assay, additional GTPases; type: binding; conditions: any tested condition or protein; data not shown
Procedure: All Protein-Probe assays were performed using a sample volume of 8 μL and a two-step assay protocol. […] Assays were performed in a sample buffer containing 10 mM HEPES (pH 7.5), 0.001% Triton X-100 and 20 mM NaCl and the buffer was supplemented with 0-10 mM MgCl2, 0-1 mM CaCl2, or 0-1 mM EDTA, depending on the assay. […] Depending on the studied protein, thermal ramping was performed up to 95 °C, using 5 °C intervals. At each temperature, samples were incubated for 3 min before the Protein-Probe solution was added, and the TRL-signals at 620 nm were monitored at RT.

[4] = system: T3, KRAS Q61L; test: Protein-Probe thermal stability assay; type: binding, human; conditions: Table S1; KRAS Q61L 50 nM; MgCl2 1 mM
T3 construct: GG-Hs.KRAS4b (2-188) Q61L; His6-MBP (N, cleaved yes); made in house; host or cells: E. coli
Procedure: (§3) All Protein-Probe assays were performed using a sample volume of 8 µL and a two-step assay protocol. Detection was performed at room temperature (RT) by adding 65 µL Protein-Probe solution: 4 µM HIDC (1,1,3,3,3′,3′-hexamethylindodicarbocyanine iodide) and 1–1.5 nM Eu^3+-labeled peptide probe (NH2-[…]). Assays were performed in a sample buffer containing 10 mM HEPES (pH 7.5), 0.001% Triton X-100 and 20 mM NaCl and the buffer was supplemented with 0–10 mM MgCl2, 0–1 mM CaCl2, or 0–1 mM EDTA, depending on the assay. In all thermal stability assays, samples were preincubated at RT for 10 min (nucleotides) or 30 min (inhibitors) prior to thermal measurements. Depending on the studied protein, thermal ramping was performed up to 95 °C, using 5 °C intervals. At each temperature, samples were incubated for 3 min before the Protein-Probe solution was added, and the TRL-signals at 620 nm were monitored at RT.
(§4) In addition, KRAS WT was monitored in a sample buffer supplemented with 0–10 mM MgCl2 or 0–1 mM CaCl2.
(§5) Assays were performed using three DARPins alone or in combination with small molecular inhibitors. […] The thermal curves were monitored after an additional 30 min incubation at RT.

[5] = system: T4, KRAS G12C; test: Protein-Probe thermal stability assay; type: binding, human; conditions: Table S1; KRAS G12C 50 nM; EDTA 0.5 mM, MgCl2 1 mM
T4 construct: GG-Hs.KRAS4b (2-188) G12C; His6-MBP (N, cleaved yes); made in house; host or cells: E. coli
Procedure: All Protein-Probe assays were performed using a sample volume of 8 µL and a two-step assay protocol. […] Assays were performed in a sample buffer containing 10 mM HEPES (pH 7.5), 0.001% Triton X-100 and 20 mM NaCl and the buffer was supplemented with 0–10 mM MgCl2, 0–1 mM CaCl2, or 0–1 mM EDTA, depending on the assay. In all thermal stability assays, samples were preincubated at RT for 10 min (nucleotides) or 30 min (inhibitors) prior to thermal measurements. […] At each temperature, samples were incubated for 3 min before the Protein-Probe solution was added, and the TRL-signals at 620 nm were monitored at RT. […]
(§6) All inhibitor assays were performed with a buffer containing 1 mM MgCl2. […]

[6] = system: T5, Ac-KRAS; test: Protein-Probe thermal stability assay; type: binding, human; conditions: Table S1; Ac-KRAS 1 µM; MgCl2
T5 construct: Truncated (aa 1–169) iMet-
Procedure: as §3, §4

[7] = system: T6, iMet-KRAS; test: Protein-Probe thermal stability assay; type: binding, human; conditions: Table S1; iMet-KRAS 1 µM; MgCl2
T6 construct: iMet-KRAS (G-Hs.KRAS4b(1-169)) (Addgene #159539)
Procedure: as §3, §4

[8] = system: T7, RhoA; test: Protein-Probe thermal stability assay; type: binding; conditions: Table S1; RhoA 1 µM; additive concentrations not given (100 µM GDP/GTP)
T7 construct: and RhoA (1-182) were gen-; His6-MBP (N, cleaved yes); made in house; host or cells: E. coli
Procedure: as §3, §4
KRAS G13D (50 nM) was monitored in the presence of 0–900 nM GDP, and KRAS WT, G13D, G12D, and Q61R (50 nM) were monitored with 10 and/or 100 µM GDP, GTP, and ATP in buffer supplemented with 1 mM MgCl2. KRAS WT (50 nM) was also monitored with 10 µM GDP in a buffer without MgCl2 or supplemented with 0–1 mM CaCl2 or 1 mM EDTA. […] In addition, melting curves for KRAS WT (50 nM) were measured with GTP analogs GTPγS, GMPPNP, and GMPPCP (0–300 µM), and GMP (0–1000 µM) in the presence of 1 mM MgCl2.

[9] = system: T1, KRAS G13D; test: Protein-Probe thermal stability assay; type: binding, human
Procedure: as §3, §4
(§7) KRAS G13D (50 nM) was monitored in the presence of 0–900 nM GDP, and KRAS WT, G13D, G12D, and Q61R (50 nM) were monitored with 10 and/or 100 µM GDP, GTP, and ATP in buffer supplemented with 1 mM MgCl2. KRAS WT (50 nM) was also monitored with 10 µM GDP in a buffer without MgCl2 or supplemented with 0–1 mM CaCl2 or 1 mM EDTA. HRAS (2 µM), NRAS (2 µM), RhoA (2 µM), and Gαi (50 nM) were monitored with 100 µM GDP, GTP, or ATP in buffers with or without 1 mM MgCl2 and 1 mM EDTA. In addition, melting curves for KRAS WT (50 nM) were measured with GTP analogs GTPγS, GMPPNP, and GMPPCP (0–300 µM), and GMP (0–1000 µM) in the presence of 1 mM MgCl2.
as §5

[10] = system: T8, KRAS Q61R; test: Protein-Probe thermal stability assay; type: binding, human
T8 construct: GG-Hs.KRAS4b (2-188) Q61R; His6-MBP (N, cleaved yes); made in house; host or cells: E. coli
Procedure: as §3, §4, §7, §5

[11] = system: Gαi; test: Protein-Probe thermal stability assay; type: binding
Procedure: as §3, §4, §7

[12] = system: T9, KRAS WT; test: Protein-Probe thermal stability assay; type: binding, human; conditions: for Thermal Stability (°C): Table S1
T9 construct: His6-MBP (N, cleaved yes); made in house; host or cells: E. coli
Procedure: as §3, §4
as §7, with “KRAS G13D (50 nM) was monitored in the presence of 0–900 nM GDP, and KRAS WT, G13D, G12D, and Q61R (50 nM) were monitored with 10 and/or 100 µM GDP, GTP, and ATP in buffer supplemented with 1 mM MgCl2.” left out
as §6

[13] = system: T2, KRAS V14I; test: Protein-Probe thermal stability assay; type: binding; conditions: Table S1; KRAS V14I 1 µM; MgCl2
Procedure: as §3

[14] = system: KRAS G12D; test: Protein-Probe thermal stability assay; type: binding, human; conditions: Table S1; KRAS G12D 50 nM; MgCl2 1 mM, GDP 10 mM as headed
Procedure: as §3, §4, §7
All inhibitor assays were performed with a buffer containing 1 mM MgCl2.
as §5

## Nc1ncnc2c1ncn2[C@@H]1O[C@H](COP(=O)(O)OP(=O)(O)OP(=O)(O)O)[C@@H](O)[C@H]1O [ATP, adenosine-5’-triphosphate]
[1]
  stabilization: no effect; also recorded: no KRAS G13D stabilization
[2]
  effect on stability: no effect
[3]
  stabilization: no stabilization

## [Cl-].[Cl-].[Mg+2] [MgCl2]
[4]
  Thermal Stability (°C): 60.4 ± 0.5 °C
[5]
  Thermal Stability (°C): 61.8 ± 0.5 °C
[6]
  Thermal Stability (°C): 66.0 ± 1.0 °C
[7]
  Thermal Stability (°C): 66.9 ± 0.2 °C
[8]
  Thermal Stability (°C): 61.3 ± 0.3 °C
[9]; KRAS G13D 100 nM, additive 1 mM
  Tm: 47.7 ± 0.4 °C
[9]; Table S1, KRAS G13D 50 nM, EDTA 0.5 mM, MgCl2 1 mM, GDP 10 mM, GTP 10 µM as headed
  Thermal Stability (°C): 50.7 ± 0.2 °C
[10]; KRAS Q61R 100 nM, additive 1 mM
  Tm: 66.5 ± 0.5 °C
[10]; Table S1, KRAS Q61R 50 nM, EDTA 0.5 mM, MgCl2 1 mM, GDP 10 mM, GTP 10 µM as headed
  Thermal Stability (°C): 71.9 ± 0.6 °C
[11]
  effect of Mg2+ on thermal stability: ~ 4.2 °C
[12]; KRAS WT 50 nM, additive 1 mM
  stability increase compared to 1 mM EDTA: 9.1 °C
[12]; KRAS WT 100 nM, 10 mM MgCl2
  Tm: 64.7 ± 0.5 °C
[12]; KRAS WT 100 nM, 1 or 10 mM MgCl2
  increase of thermal stability over that without MgCl2: approximately 10 °C
[12]; KRAS WT 100 nM, additive 1 mM
  Tm: 60.1 ± 0.3 °C
[12]; KRAS WT 50 nM, additive as headed: EDTA 0.5 mM, MgCl2 1 mM, GDP 10 mM, GTP 10 µM, GTPγS 10 µM, GMP-PNP 300 µM, GMP-PCP 300 µM, GMP 1 mM
  Thermal Stability (°C): 61.3 ± 0.5 °C
[12]; KRAS WT 1 µM, MgCl2
  Thermal Stability (°C): 54.4 ± 0.6 °C
[13]
  Thermal Stability (°C): 47.5 ± 0.2 °C
[14]
  Thermal Stability (°C): 60.6 ± 0.5 °C
